Consider 1 molecule from US20220340665A1, “INHIBITOR AGAINST EXPRESSION OF IMMUNE CHECKPOINT MOLECULE” (RENASCIENCE INC., priority 2019, published 2022).

Entries after “also recorded” stand apart in the source; their conditions may differ.

Data set [1] concerns mouse malignant melanoma cell line (B16F10). Description: PD-L1 expression level by flow cytometry in B16F10 cells (Experimental Example 3). In kind it is cell-based. Particulars: inhibitor 50 μM with rPAI-1 40 nM, 2 days, listed as PAI-1 inhibitor. How it is done: Next, the PD-L1 expression level was determined by flow cytometry in the same manner as in Experimental Example 1.
Likewise, a mouse colorectal cancer cell line (MC38) and a mouse malignant melanoma cell line (B16F10) were also tested in the same manner, instead of the mouse leukemia cell line (32Dp210).

In data set [2] the test system is mouse leukemia cell line (32Dp210). As to the kind of experiment: PD-L1 expression in leukemic cells of mice transplanted with 32Dp210 (Experimental Example 5). In kind it is in vivo, mice (C3H/HEJ). The following applies: peripheral blood, 10 mg/kg orally once daily, 7 days, vs vehicle, listed as PAI-1 inhibitor. The protocol: Specifically, 5×10^5 cells of a mouse leukemia cell line (32Dp210) were transplanted into mice (C3H/HEJ), and engraftment was confirmed one week later. Subsequently, the PAI-1 inhibitor was orally administered once daily at 10 mg/kg for a total of 7 days. On the next day of the final administration, the peripheral blood or the spleen was collected from the mice. The spleen was mechanically dispersed by grinding through nylon mesh. The peripheral blood and spleen cells were independently hemolyzed with an ammonium chloride solution and then stained with an anti-PD-L1 antibody (clone name: 10F.G92) labeled with Allophycocyanin (APC) to determine the PD-L1 expression level in the leukemic cells with a flow cytometer. As a comparative control experiment, instead of the PAI-1 inhibitor, only physiological saline (vehicle) was administered to the mice transplanted with the mouse leukemia cell line, and the PD-L1 expression level in the leukemic cells was determined with a flow cytometer in the same manner as described above.

For data set [3], the system named is human ovarian clear cell adenocarcinoma cell line (ES2). As to the kind of experiment: PD-L1 expression in tumor cells of ES2 tumor mass in nude mice (Experimental Example 9). In kind it is in vivo. The following applies: ES2 subcutaneous in nude mice; 10 mg/kg orally once daily, 7 days; vs vehicle. How it is done: The efficacy of the PAI-1 inhibitor against human cancer cells (ovarian cancer cells) was studied in vivo. Specifically, 5×10^5 cells of a human ovarian clear cell adenocarcinoma cell line (ES2) were transplanted subcutaneously in nude mice. One week later, engraftment of more than 5 mm of tumor mass in the major axis was confirmed. Subsequently, the PAI-1 inhibitor was orally administered once daily at 10 mg/kg for a total of 7 days. On the next day of the final administration, the tumor mass was collected from the mice, chopped with scissors, suspended in a 0.025% collagenase solution (FUJIFILM Wako Pure Chemical Corporation), and treated at 37° C. for 2 hours to break cell-cell bonds. The cells obtained by enzymatic treatment were stained with an anti-PD-L1 antibody (clone name: 10F.G92) labelled with Allophycocyanin (APC), and the PD-L1 expression level in the tumor cells was determined with a flow cytometer. As a comparative control experiment, cells were collected also from the tumor mass in the same manner in terms of a mouse group to which only physiological saline (vehicle) was administered instead of the PAI-1 inhibitor, and the PD-L1 expression level in the tumor cells was determined with a flow cytometer.

Data set [4] concerns mouse leukemia cell line (32Dp210). As to the kind of experiment: Size of subcutaneous 32Dp210 tumor mass in mice (Experimental Example 10). Type of data set: in vivo, mice (C3H/HEJ). The following applies: 32Dp210 subcutaneous, 10 mg/kg orally once daily, 7 days, n=2, listed as PAI-1 inhibitor. How it is done: Specifically, 5×10^5 cells of a mouse leukemia cell line (32Dp210) were transplanted subcutaneously in mice (C3H/HEJ), and one week later, engraftment of more than 5 mm of a tumor mass in the major axis was confirmed. Subsequently, the PAI-1 inhibitor was orally administered once daily at 10 mg/kg for a total of 7 days. On the next day of the final administration, the size of the tumor mass ([…]) was measured. As a comparative control experiment, the size of the tumor mass was measured in the same manner in terms of a mouse group to which only physiological saline (vehicle) was orally administered instead of the PAI-1 inhibitor.

Data set [5] relates to mouse colorectal cancer cell line (MC38). As to the kind of experiment: MC38 tumor mass in immunodeficient and wild-type mice (Experimental Example 12). The following applies: 10 mg/kg orally once daily, 14 days, listed as PAI-1 inhibitor. In kind it is in vivo. How it is done: To confirm this point, the following experiment was performed. Specifically, 5×10^5 cells of a mouse colorectal cancer cell line (MC38) were subcutaneously transplanted into immunodeficient mice (Rag2/IL-2R-KO) and wild-type mice (WT, for control). The immunodeficient mice lacked the RAG2 gene and the IL-2 receptor γ chain gene, and immune cells (T cells, B cells, NK cells) were not congenitally present in the body. One week later, engraftment of more than 5 mm of a tumor mass in the major axis was confirmed. Subsequently, the PAI-1 inhibitor (10 mg/kg) or physiological saline (vehicle) was orally administered to each mouse once daily for a total of 14 consecutive days.

Data set [6] concerns M2 macrophages. As to the kind of experiment: Macrophages and M2 macrophages in MC38 tumor mass by flow cytometry (Experimental Example 13). In kind it is in vivo, mice (C57BL6). The following applies: oral administration for one week, vs vehicle. The protocol: 1) The untreated group and 3) the single-administration group of PAI-1 inhibitor (cancer-bearing mice) of Experimental Example 11, after tumor engraftment, were orally administered with physiological saline (vehicle) or the PAI-1 inhibitor for one week. Thereafter, the tumors were collected, and the M2 macrophages were stained with an anti-CD45 antibody, an anti-CD11b antibody, an anti-F4/80 antibody, and an anti-CD206 antibody, and the percentage of M2 macrophages in the tumor mass was analyzed with a flow cytometer.
(In general: Flow cytometry measures light scatter and fluorescence of single cells or particles in a stream.)

The subject of data set [7] is CD8+ T cells. As to the kind of experiment: Cytotoxic T cells in MC38 tumor mass by flow cytometry (Experimental Example 16). Particulars: oral administration for one week, vs vehicle. In kind it is in vivo, mice (C57BL6). From the text:
1) The untreated group and 3) the single-administration group of PAI-1 inhibitor (cancer-bearing mice) of Experimental Example 11, after tumor engraftment, were orally administered with physiological saline (vehicle) or the PAI-1 inhibitor for one week. Thereafter, the tumor was collected, the T cells were stained with an anti-CD45 antibody, an anti-CD3 antibody, an anti-CD4 antibody, an anti-CD8 antibody, and an anti-perforin antibody, and the percentage of cytotoxic T cells in the tumor mass was determined with a flow cytometer.

For data set [8] the following is noted: non-clinical and clinical studies (JP2020-088416A); cited from earlier work.
Data set [9] addresses human PAI-1 (Homo sapiens, UniProt P05121). As to the kind of experiment: PAI-1 inhibitory activity, t-PA with Spectrozyme t-PA chromogenic substrate (Reference Experimental Example 2). Type of data set: biochemical. Also on record: purchased Molecular Innovations, Inc. (USA). Particulars: system without compound after 120 minutes = 100%. The protocol: Subsequently, human-derived tissue plasminogen activator (t-PA) (manufactured by American Diagnostica, Inc. (USA); the same applies hereinafter) adjusted to 0.05 pmol/μL was added thereto, and the mixture was further incubated at 37° C. for 60 minutes. Then, 0.25 mM of Spectrozyme t-PA synthetic substrate (manufactured by American Diagnostica, Inc. (USA); the same applies hereinafter), which is a chromogenic substrate, was added. […]
Free p-nitroaniline removed from the chromogenic substrate (Spectrozyme t-PA) by t-PA action was measured using a spectrophotometer at an absorbance of 405 nm at 20-minute intervals, for 120 minutes.

Chain of human PAI-1 (P05121 24-402): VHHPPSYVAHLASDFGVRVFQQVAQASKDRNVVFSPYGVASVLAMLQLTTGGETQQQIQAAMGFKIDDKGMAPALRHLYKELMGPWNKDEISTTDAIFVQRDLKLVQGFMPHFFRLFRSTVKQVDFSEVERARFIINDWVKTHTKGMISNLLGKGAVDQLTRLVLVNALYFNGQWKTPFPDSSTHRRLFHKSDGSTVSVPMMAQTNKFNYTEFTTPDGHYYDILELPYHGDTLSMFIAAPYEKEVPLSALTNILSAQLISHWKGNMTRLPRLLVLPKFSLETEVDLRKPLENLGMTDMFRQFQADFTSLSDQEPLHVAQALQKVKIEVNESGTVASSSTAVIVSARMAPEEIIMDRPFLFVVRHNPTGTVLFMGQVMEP

Take `O=C(Nc1ccc(Cl)cc1C(=O)[O-])c1cccc(-c2cccc3cccnc23)c1.[Na+]` [Example 68, 5-chloro-2-(((3-(quinolin-8-yl)phenyl)carbonyl)amino)sodium benzoate]: the “PD-L1 expression induction by rPAI-1” value in [1] is “completely inhibited the induction; also recorded: the same results as those of the leukemia cells”. Moreover, the “PD-L1 expression level in leukemia cells” value in data set [2] is recorded as “reduced PD-L1 expression level; also recorded: lower PD-L1 expression level”. In addition, the “PD-L1 expression level in the tumor cells” value in [3] is recorded as “reduced”. In addition, in data set [4], the “size of the tumor mass” value was “tumor mass disappearance; also recorded: loss of tumor mass”. Also, the tumor regression effect result in data set [5] (immunodeficient mice (Rag2/IL-2R-KO)) is given as “no such an effect was observed; also recorded: not observed”; in data set [5] (wild-type mice (WT), 10 mg/kg), “achieved a tumor regression effect; also recorded: observed”. Further, the “number of macrophages in the tumor” value in data set [6] is given as “reduced”. Further, in data set [6], the “percentage of M2 macrophages among macrophages” value is given as “reduced”. Moreover, the “percentage of intratumoral infiltration of CD8+ T cells (effector T cells)” value in data set [7] is listed as “increased”. The “safety by oral administration” value in data set [8] was “no safety issues”. Further, the PAI-1 activity % in data set [9] (compound 10 μm (head)) is reported as 2.1%; in [9] (compound 25 μm (head)) it was 2.4%.
